According to ChEMBL document CHEMBL1129561 (J Med Chem, 1996):

Assays:
[1] = target: T1, Progesterone receptor (Homo sapiens, UniProt P06401)
T1 sequence (P06401 whole entry): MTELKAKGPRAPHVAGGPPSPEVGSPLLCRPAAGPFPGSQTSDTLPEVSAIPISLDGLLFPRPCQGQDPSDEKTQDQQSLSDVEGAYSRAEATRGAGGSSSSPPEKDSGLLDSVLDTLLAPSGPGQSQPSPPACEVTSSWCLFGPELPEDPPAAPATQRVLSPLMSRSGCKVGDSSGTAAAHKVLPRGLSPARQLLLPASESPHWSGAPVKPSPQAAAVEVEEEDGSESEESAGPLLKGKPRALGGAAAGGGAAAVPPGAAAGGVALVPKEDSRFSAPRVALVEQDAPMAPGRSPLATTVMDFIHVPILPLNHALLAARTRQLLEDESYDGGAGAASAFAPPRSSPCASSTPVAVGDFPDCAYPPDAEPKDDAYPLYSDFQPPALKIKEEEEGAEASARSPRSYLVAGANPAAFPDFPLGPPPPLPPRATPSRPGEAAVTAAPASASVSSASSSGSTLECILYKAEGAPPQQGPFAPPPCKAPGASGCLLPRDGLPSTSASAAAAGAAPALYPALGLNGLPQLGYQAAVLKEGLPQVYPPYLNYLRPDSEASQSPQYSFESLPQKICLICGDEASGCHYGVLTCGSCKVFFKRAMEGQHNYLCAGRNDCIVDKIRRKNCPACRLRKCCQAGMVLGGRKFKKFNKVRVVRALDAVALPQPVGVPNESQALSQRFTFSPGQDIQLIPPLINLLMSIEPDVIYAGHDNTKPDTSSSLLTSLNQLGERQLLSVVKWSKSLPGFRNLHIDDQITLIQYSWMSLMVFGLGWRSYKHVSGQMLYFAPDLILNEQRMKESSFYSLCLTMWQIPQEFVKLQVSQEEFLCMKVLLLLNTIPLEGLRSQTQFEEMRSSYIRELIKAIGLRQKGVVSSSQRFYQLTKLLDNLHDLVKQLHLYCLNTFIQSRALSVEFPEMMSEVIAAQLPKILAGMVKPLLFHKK

[2] = target: T2, Glucocorticoid receptor (Homo sapiens, UniProt P04150)
T2 sequence (P04150 whole entry): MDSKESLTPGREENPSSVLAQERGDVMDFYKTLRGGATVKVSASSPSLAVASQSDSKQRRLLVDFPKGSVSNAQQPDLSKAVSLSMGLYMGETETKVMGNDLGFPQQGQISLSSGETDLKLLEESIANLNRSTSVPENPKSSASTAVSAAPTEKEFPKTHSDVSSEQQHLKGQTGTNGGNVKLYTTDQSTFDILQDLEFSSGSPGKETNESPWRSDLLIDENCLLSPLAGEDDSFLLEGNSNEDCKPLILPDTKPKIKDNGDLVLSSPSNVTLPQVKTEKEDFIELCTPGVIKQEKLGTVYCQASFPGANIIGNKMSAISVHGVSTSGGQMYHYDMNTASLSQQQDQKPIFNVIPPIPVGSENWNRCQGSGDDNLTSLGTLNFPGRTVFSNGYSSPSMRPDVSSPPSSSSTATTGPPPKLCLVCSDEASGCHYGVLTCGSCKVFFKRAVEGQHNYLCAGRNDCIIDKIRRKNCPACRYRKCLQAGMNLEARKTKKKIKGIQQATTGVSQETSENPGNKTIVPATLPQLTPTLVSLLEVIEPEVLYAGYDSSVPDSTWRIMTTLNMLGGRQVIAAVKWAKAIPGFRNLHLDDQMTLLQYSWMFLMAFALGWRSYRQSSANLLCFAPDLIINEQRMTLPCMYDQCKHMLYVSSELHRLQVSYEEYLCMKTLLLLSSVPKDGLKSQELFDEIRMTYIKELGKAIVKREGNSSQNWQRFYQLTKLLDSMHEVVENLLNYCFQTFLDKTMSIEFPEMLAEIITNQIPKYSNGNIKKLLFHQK
Description: Inhibitory activity against human glucocorticoid receptor (hGR)

[3] = target: T1, Progesterone receptor; remark: listed apart in the source
[4] = target: T3, Mineralocorticoid receptor (Homo sapiens, UniProt P08235)
T3 sequence (P08235 whole entry): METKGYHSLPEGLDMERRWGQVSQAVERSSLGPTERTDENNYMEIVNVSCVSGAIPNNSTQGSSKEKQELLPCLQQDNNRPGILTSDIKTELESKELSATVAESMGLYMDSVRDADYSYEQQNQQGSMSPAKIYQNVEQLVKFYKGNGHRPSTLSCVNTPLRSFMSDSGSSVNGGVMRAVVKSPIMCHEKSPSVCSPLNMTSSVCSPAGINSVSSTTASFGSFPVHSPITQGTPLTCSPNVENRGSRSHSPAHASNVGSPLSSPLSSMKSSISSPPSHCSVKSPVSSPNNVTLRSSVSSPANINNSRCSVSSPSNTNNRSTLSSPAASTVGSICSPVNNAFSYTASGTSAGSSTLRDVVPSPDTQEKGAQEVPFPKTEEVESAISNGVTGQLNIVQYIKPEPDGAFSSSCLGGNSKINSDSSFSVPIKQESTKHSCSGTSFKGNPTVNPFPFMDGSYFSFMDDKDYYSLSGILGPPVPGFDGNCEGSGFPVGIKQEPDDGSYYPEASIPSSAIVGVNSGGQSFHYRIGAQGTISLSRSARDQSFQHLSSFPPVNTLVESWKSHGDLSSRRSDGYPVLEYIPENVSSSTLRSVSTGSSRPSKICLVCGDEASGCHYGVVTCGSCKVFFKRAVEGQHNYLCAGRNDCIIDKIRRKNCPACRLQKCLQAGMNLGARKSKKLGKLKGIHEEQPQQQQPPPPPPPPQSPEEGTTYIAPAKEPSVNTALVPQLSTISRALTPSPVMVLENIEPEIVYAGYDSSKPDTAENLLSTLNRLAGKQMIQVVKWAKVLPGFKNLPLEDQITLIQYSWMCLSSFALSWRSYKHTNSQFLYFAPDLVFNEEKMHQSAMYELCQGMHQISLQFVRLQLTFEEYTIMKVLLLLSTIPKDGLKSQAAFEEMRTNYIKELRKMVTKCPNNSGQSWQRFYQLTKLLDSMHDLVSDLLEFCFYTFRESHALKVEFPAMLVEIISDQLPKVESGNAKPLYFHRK
Description: Inhibitory activity against human mineralocorticoid receptor (hMR)

[5] = target: T1, Progesterone receptor; remark: listed apart in the source
[6] = target: T4, Estrogen receptor (Homo sapiens, UniProt Q92731+P03372)
Description: Binding affinity for human estrogen receptor

[7] = target: T2, Glucocorticoid receptor; remark: listed apart in the source
Description: Binding affinity was determined for human glucocorticoid receptor(hGR).

[8] = target: T4, Estrogen receptor; remark: listed apart in the source
Description: Inhibitory activity against human estrogen receptor

C=C1C=C(C)CC(C)(C)C1Cc1ccc([N+](=O)[O-])cc1 (stereo not drawn)
IC50 [1]: 1.05 µM | IC50 [2]: > 10 µM | IC50 [3]: 0.186 µM | IC50 [4]: > 10 µM | Ki [5]: 0.0535 µM | Ki [6]: > 10 µM | Ki [7]: 5.42 µM | IC50 [8]: > 10 µM
